Test results: publication PMC9181887, “In Vitro Antithrombotic, Hematological Toxicity, and Inhibitor Studies of Protocatechuic, Isovanillic, and p-Hydroxybenzoic Acids from Maclura tricuspidata (Carr.) Bur” (Molecules, 2022)

Tests used:
human thrombin = target: T1, human thrombin (Homo sapiens, UniProt P00734); test: Thrombin activity and kinetic/inhibitor assay; type: biochemical; details: for inhibition type against thrombin: from Kik/Kiv ratio and Lineweaver–Burk plots; for activity of thrombin: highest concentration of each compound, p < 0.01; for IC50 / Ki / Kik/Kiv / Kcat / Vmax: thrombin; for Vmax value of thrombin decreased by, fold of non-treated: vs non-treated 0.381 ± 0.011 mU/min; for Vmax value of thrombin decreased by, fold of non-treated / Km value of thrombin reduced by, fold of non-treated / Kcat values of thrombin reduced by, fold of non-treated: compound 0.065–1.3 mM; for Km value of thrombin reduced by, fold of non-treated: vs non-treated 0.566 ± 0.025 mM; for Kcat values of thrombin reduced by, fold of non-treated: vs non-treated 109.87 ± 3.16 s^−1
T1 construct: purchased Sigma-Aldrich
Description: To determine the thrombin activity, various concentrations of compounds were treated with 1 U human thrombin in 100 μL of 20 mM Tris-HCl, as previously described. The reaction solutions were incubated for 15 min at 37 °C. After the incubation, 1 mM chromogenic substrate for thrombin (S-2238, HD-Phe-Pip-Arg-p-nitroanilide) was added and incubated for 1 h at 37 °C. Absorbance was measured at 405 nm to determine the enzymatic activity. To determine FXa activity, various concentrations of the compounds were mixed with 1 U human FXa in 20 mM Tris-HCl (pH 7.4) in volume of 100 μL, followed by incubation for 15 min at 37 °C. After adding 1 mM N-benzoyl-Ile-Glu-Gly-Arg-p-nitroanilide, a highly specific chromogenic peptide substrate for FXa, the reaction solutions were incubated for 1 h at 37 °C. The residual activity of FXa was measured at 405 nm and is presented as a percentage of inhibition. To investigate FXIIIa activity, various concentrations of the compounds were mixed with 1 U human FXIIIa in 20 mM Tris-HCl (pH 7.4) in a volume of 100 μL, followed by, incubation for 15 min at 37 °C as previously described. The residual activity of FXIIIa was measured using casein and fibrinogen-HRP, according to the manufacturer’s instructions, and was presented as a percentage of inhibition. The negative control was generated by treatment with only thrombin, FXa, or FXIIIa without treatment with any compound.
Kinetic assays were performed using PA, IVA, and 4-HA for procoagulant proteases (thrombin and FXa) and fibrinoligase (FXIIIa). The kinetic constants were calculated using Lineweaver–Burk plots based on the initial reaction rates with different concentrations (0.1, 0.5, 1, and 2 mM) of each substrate for thrombin, FXa, and FXIIIa treated with or without the compounds (0.065, 0.13, 0.33, 0.65, and 1.30 mM [1–20 μg]) in a total volume of 100 μL. The Michaelis–Menten constant (Km) and maximal velocity (Vmax) were calculated from the x and y intercepts, respectively. […] The median inhibitory concentration (IC50) was defined as the concentration required to reach a 50% reduction in the activity of the three target factors. The Kik and Kiv inhibition constants were calculated using a previously described method. The inhibition type of the compounds against the three target factors was evaluated according to a previously described inhibition type definition.

mouse blood clots = test: In vitro antithrombotic activity assay using blood clot; details: vs NC group treated with saline, p < 0.01, 1 h
Description: To determine the in vitro antithrombotic activity, a blood clot assay was performed based on a previously described method. All experimental procedures were performed in accordance with the related ethical regulations of Gwangju University, and were approved by the Institutional Animal Care and Use Committee of Jeonnam Institute of Natural Resources Research, Jangheung, South Korea (2021-JINR2001). Fresh mouse blood clots (40 μg) treated with the compounds, 10–20 IU u-PA as PC 1–2, or saline as NC were incubated for 1 h. After incubation, blood clot degradation in each group was analyzed using absorbance values at a wavelength of 410 nm. The maximum absorbance wavelength was determined by measuring the absorption spectra in the wavelength range of 340–850 nm.

[1] = tested on: human platelet-poor plasma; test: Recalcification time assay; type: biochemical; details: for Absorbance after Reaction: 650 nm after 30 min, NC2 0.2094 ± 0.0305; for Half Time at 1/2 Maximum: NC2 740 ± 20 s; for Fold of Half Time: NC2 = 1.00; for plasma coagulation time: 1–20 μg
Description: Figure 5 Effect of PA (A), IVA (B), and 4-HA (C) on recalcification time and plasma density. Human platelet-poor plasma was mixed with PA, IVA, and 4-HA dissolved in DMSO in 96-well plates and incubated for 10 min at 37 °C. Thereafter, 100 mM pre-warmed CaCl2 was added to the mixture and absorbance was taken every 60 s at 650 nm for 30 min in a microplate reader. The plasma density was presented as the optical density at 650 nm after 30 min. The half time (s) was presented as reaching a half-maximum absorbance value. NC1, plasma only; NC2, plasma treated with CaCl2; PC, positive control group (1 U heparin); PA1–20, 1–20 μg of PA treated; IVA1–20, 1–20 μg of IVA treated; 4-HA1–20, 1–20 μg of 4-HA treated.
Recalcification time was measured in a 96-well plate, according to a previously described method, with slight modifications. First, 50 μL of human platelet-poor plasma was mixed with 50 μL of the compounds, vehicle as NC2, or 1 U heparin as PC, and incubated at 37 °C for 10 min. Thereafter, 100 mM pre-warmed CaCl2 was added to the mixture and absorbance was measured at 650 nm every 1 min for 30 min using a microplate reader. The plasma density was presented as the absorbance at 650 nm after 30 min. The half time was presented as reaching a half-maximum absorbance value.

SMILES | inhibition type against thrombin (human thrombin) | activity of thrombin (human thrombin) | IC50 (human thrombin) [µM] | Ki (human thrombin) [µM] | Kik/Kiv (human thrombin) | Kcat (human thrombin; compound 0.065 mM (1 μg)) [s⁻¹] | Vmax (human thrombin; compound 0.065 mM (1 μg)) [mU/min] | Kcat (human thrombin; compound 0.13 mM (2 μg)) [s⁻¹] | Vmax (human thrombin; compound 0.13 mM (2 μg)) [mU/min] | Kcat (human thrombin; compound 0.325 mM (5 μg)) [s⁻¹] | Vmax (human thrombin; compound 0.325 mM (5 μg)) [mU/min] | Kcat (human thrombin; compound 0.65 mM (10 μg)) [s⁻¹] | Vmax (human thrombin; compound 0.65 mM (10 μg)) [mU/min] | Kcat (human thrombin; compound 1.3 mM (20 μg)) [s⁻¹] | Vmax (human thrombin; compound 1.3 mM (20 μg)) [mU/min] | Vmax value of thrombin decreased by, fold of non-treated (human thrombin) | Kcat values of thrombin reduced by, fold of non-treated (human thrombin) | blood clot degradation (mouse blood clots) | Absorbance after Reaction ([1]; 1 μg) | Absorbance after Reaction ([1]; 2 μg) | other results
O=C(O)c1ccc(O)cc1 [4-HA, 4-hydroxybenzoic acid] | uncompetitive inhibition type | significantly decreased | 1700 | 1700 | 1.2 | 100.59 ± 1.41 | 0.349 ± 0.013 | 98.38 ± 1.24 | 0.341 ± 0.015 | 91.57 ± 0.98 | 0.317 ± 0.016 | 89.25 ± 0.77 | 0.309 ± 0.020 | 78.83 ± 1.01 | 0.273 ± 0.013 | 0.72–0.92 fold | 0.72–0.92 fold | significantly degraded | 0.1424 ± 0.0122 | 0.1086 ± 0.0083 | Km value of thrombin reduced by, fold of non-treated (human thrombin): 0.71–0.86 fold; half-life and plasma coagulation time [1]: significant delay; Half Time at 1/2 Maximum ([1]; 2 μg): 950 ± 70 s; Fold of Half Time ([1]; 2 μg): 1.28 ± 0.09; Absorbance after Reaction ([1]; 5 μg): 0.0866 ± 0.0051; Absorbance after Reaction ([1]; 10 μg): 0.0233 ± 0.0014; Absorbance after Reaction ([1]; 20 μg): 0.0205 ± 0.0029; plasma coagulation time [1]: partially prolonged
O=C(O)c1ccc(O)c(O)c1 [PA, protocatechuic acid] | mixed inhibition type | significantly decreased | 1110 | 1110 | 125.4 | 101.67 ± 1.44 | 0.352 ± 0.019 | 93.29 ± 1.60 | 0.323 ± 0.021 | 85.00 ± 2.13 | 0.295 ± 0.015 | 71.98 ± 1.95 | 0.249 ± 0.009 | 69.08 ± 1.15 | 0.239 ± 0.008 | 0.65–0.92 fold | 0.63–0.93 fold | significantly degraded | 0.1898 ± 0.0227 | 0.0201 ± 0.0012 | half-life and plasma coagulation time [1]: significant delay; Half Time at 1/2 Maximum ([1]; 1 μg): 1220 ± 90 s; Fold of Half Time ([1]; 1 μg): 1.65 ± 0.12; Absorbance after Reaction ([1]; 5 μg): 0.0044 ± 0.0009; Absorbance after Reaction ([1]; 10 μg): −0.0047 ± 0.0004; Absorbance after Reaction ([1]; 20 μg): −0.0103 ± 0.0011; plasma coagulation for 1800 s ([1]; 5–20 μg): completely delayed
COc1ccc(C(=O)O)cc1O [IVA, isovanillic acid] | uncompetitive inhibition type | significantly decreased | 925 | 923 | 1.1 | 87.72 ± 1.32 | 0.304 ± 0.013 | 94.13 ± 2.08 | 0.326 ± 0.018 | 67.14 ± 0.93 | 0.233 ± 0.010 | 54.42 ± 0.81 | 0.189 ± 0.007 | 48.31 ± 1.05 | 0.167 ± 0.008 | 0.44–0.86 fold | 0.43–0.86 fold | significantly degraded | 0.1882 ± 0.0097 | 0.1732 ± 0.0106 | Km value of thrombin reduced by, fold of non-treated (human thrombin): 0.52–0.93 fold; Half Time at 1/2 Maximum ([1]; 1 μg): 510 ± 25 s; Fold of Half Time ([1]; 1 μg): 0.69 ± 0.03; Absorbance after Reaction ([1]; 5 μg): 0.1575 ± 0.0052; Half Time at 1/2 Maximum ([1]; 5 μg): 615 ± 20 s; Fold of Half Time ([1]; 5 μg): 0.83 ± 0.03; Absorbance after Reaction ([1]; 10 μg): 0.1377 ± 0.0071; Half Time at 1/2 Maximum ([1]; 10 μg): 355 ± 30 s; Fold of Half Time ([1]; 10 μg): 0.48 ± 0.04; Absorbance after Reaction ([1]; 20 μg): 0.0462 ± 0.0035; plasma coagulation time [1]: partially prolonged; final plasma density ([1]; after 1800 s): significantly decreased; initial response of plasma coagulation (fold of half time) ([1]; range over doses, promoted (shorter half time)): 0.48–0.83 fold
